Laboratory results as given in PubChem BioAssay (NCI).
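Test compounds were applied to cells in 96-well plates for 48 hours at 5 doses. TGI: total growth inhibition.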

Experiments:
Test in all cases: growth of human tumour cells (NCI), 48 h
M14 melanoma = system: M14 melanoma
UO-31 renal = system: UO-31 renal
MDA-N = system: MDA-N
RXF 393 renal = system: RXF 393 renal
CCRF-CEM leukemia = system: CCRF-CEM leukemia
A549 NSCLC = system: A549 NSCLC
OVCAR-8 ovarian = system: OVCAR-8 ovarian
HCT-116 colon = system: HCT-116 colon
A498 renal = system: A498 renal
HS 578T breast = system: HS 578T breast
SF-295 CNS = system: SF-295 CNS

Compound	TGI (M14 melanoma) [µM]	TGI (UO-31 renal) [µM]	TGI (MDA-N) [µM]	TGI (RXF 393 renal) [µM]	TGI (CCRF-CEM leukemia) [µM]	TGI (A549 NSCLC) [µM]	TGI (OVCAR-8 ovarian) [µM]	TGI (HCT-116 colon) [µM]	TGI (A498 renal) [µM]	TGI (HS 578T breast) [µM]	TGI (SF-295 CNS) [µM]
COC(=O)[C@@]1(C)CCC[C@]2(C(=O)O)C3Cc4occc4[C@H](C)[C@@H]3CCC21 (stereo partly drawn)	> 100	> 100	> 100	> 100	> 100	> 100	> 100	> 100	> 100	> 100	> 100
CC1CN=C(c2ccc(CN3CCC(C4CCN(Cc5ccc(C6=NCC(C)N6)cc5)CC4)CC3)cc2)N1 (stereo not drawn)	44	58.4	47.3	33.5	38.2	46	> 100	34	80.6	41.8	43.2
CNC(=O)N(CCC#N)CCCN(C(=O)N(C)C)c1ccccc1	> 100	> 100	> 100	> 100	> 100	> 100	> 100	> 100	> 100	> 100	> 100
Cn1c2ccc(C3=NCCN3)cc2c2cc(C3=NCCN3)ccc21	> 100	> 100	> 100	> 100	0.0344	> 100	> 100	> 100	> 100	> 100	> 100
O=C(O)CCSC1=NCCN1	> 100	> 100	> 100	> 100	> 100	> 100	> 100	> 100	> 100	> 100	> 100
COc1ccccc1NC(=S)N/N=C/c1ccccn1	7.69	24.4	> 46.4	94.1	> 23.1	34.7	12.9	0.639	5.04	> 46.4	> 31.6
C[C@]12CC[C@H]3[C@@H](CCC4=C(Br)C(=O)C=C[C@@]43O)[C@@H]1CCC2=O	> 100	> 100	> 100	57.1	31.7	> 100	80.2	80.1	> 100	> 100	> 100
O=C1C(Cl)=C(c2ccc([N+](=O)[O-])cc2)C(=O)c2c(O)cccc21	3.66	3.84	6.53	3.49	> 100	25	5.78	3.55	12.5	4.13	8.19
